Assay results: US4920127A, “Substituted indoles and their use as 5-HT3 receptor antagonists” (Beecham Group p.l.c., priority 1987, dated 1990)
Structures can show the parent of a compound that is named as a salt.

What follows are molecules tested on von Bezold-Jarisch reflex evoked by 5-HT (assay: Antagonism of the von Bezold-Jarisch reflex evoked by 5-HT in the anaesthetised rat). Conditions: iv, male rats, urethane anaesthesia, compounds intravenously, 5-HT usually 6 μg/kg i.v., heart rate changes, read-out: ED50 (concentration required to reduce the 5HT-evoked response to 50% of the control response).
Format: in vivo
Experimental: Antagonism of the von Bezold-Jarisch reflex
The compounds were evaluated for antagonism of the von Bezold-Jarisch reflex evoked by 5-HT in the anaesthetised rat according to the following method:
Male rats, 250-350 g, were anaesthetised with urethane (1.25 g/kg intraperitoneally) and blood pressure and heart rate recorded as described by Fozard J. R. et al., J. Cardiovasc. Pharmacol. 2, 229-245 (1980). A submaximal dose of 5-HT (usually 6 μg/kg) was given repeatedly by the intravenous route and changes in heart rate quantified. Compounds were given intravenously and the concentration required to reduce the 5HT-evoked response to 50% of the control response (ED50) was then determined.
`CN1[C@@H]2CC[C@H]1C[C@@H](NC(=O)N1CC3(CCCCC3)c3ccccc31)C2` [Compound 1] showed an ED50 of 3.6 µg/kg. Molecule `CN1[C@@H]2CC[C@H]1C[C@@H](NC(=O)N1CC3(CC3)c3ccccc31)C2` [Compound 6] has an ED50 of 3.5 µg/kg. With `O=C(NC1CN2CCC1CC2)N1CC(c2ccccc2)c2ccccc21` (stereo not shown) [Compound 8, N-(1-Azabicyclo[2.2.2]oct-3-yl)2,3-dihydro-3-phenylindol-1-yl urea hydrochloride] the ED50 was 1.2 µg/kg. Work on `CN1[C@@H]2CC[C@H]1C[C@@H](NC(=O)N1CC3(CCCC3)c3ccccc31)C2` [Compound 10] yielded an ED50 of 1.8 µg/kg.
